Patent publication US4198504A, “[3-(Pyridinium)-7-(naphthyiridinyl carbonylamino)acetamido]cephalosporanic acid derivatives” (Bristol-Myers Company, priority 1978, dated 1980)
Where two headings read alike, the source gives them in different places.

Columns and labels:
[1] = system: Staphylococcus aureus Smith; experiment: In vivo efficacy, experimental infection in mice, intramuscular treatment, Staphylococcus aureus Smith; parameters: species or system Staphylococcus aureus (infected mice); details: im, 120 h, read-out: PD50 Staphylococcus aureus Smith
Protocol: (§1) The in vivo efficacy was evaluated by intramuscular treatment against three kinds of experimental infection in mice.
(§2) The in vivo tests were carried out using the following three pathogenic organisms:
Staphylococcus aureus Smith
(§3) Mice were challenged intraperitoneally with approximately a 100×LD50 dose of the pathogens in a 5% mucin suspension. The mice were treated with test compound by I.M. route immediately after the bacterial challenge.

[2] = system: Ent. cloacae (3), Pr. vulgaris (1), Pr. morganii (1), S. marcescen (1); experiment: In vitro MIC, serial two-fold agar dilution, primary evaluation Gn-II (Ent. cloacae, Pr. vulgaris, Pr. morganii, S. marcescens); format: cell-based; details: CBPC = 100%, geometric mean of MICs
Protocol: (§4) Minimun inhibitory concentrations (MIC) were determined by the serial two-fold agar dilution method using Steers' apparatus on Mueller-Hinton agar plate against 31 test organisms for the primary screening and also against 64 strains of Pseudomonas aeruginosa for the secondary evaluation. The results are shown in Table 1 in terms of relative activity with respect to the standard compound CBPC (carbenicillin) which was set at 100%. In each group the calculation was based on the geometric mean of the observed MICs.
GnII = Ent. cloacae (3), Pr. vulgaris (1), Pr. morganii (1), S. marcescen

[3] = system: S. aureus; experiment: In vitro MIC, serial two-fold agar dilution, primary evaluation Gp (S. aureus, 6 strains); format: cell-based; details: CBPC = 100%, geometric mean of MICs
Protocol: as §4
*GP = S. aureus (6 strains);

[4] = Antibiotic blood levels in mice following intramuscular administration (paper disc-agar diffusion, Escherichia coli NIHJ as assay organism); format: in vivo; details: mouse, im, I.M., 20 mg./kg.; for half-life: read-out: Blood level, Half-life; for Cmax: read-out: Blood level, Peak Concentration
Protocol: Antibiotic blood levels were determined in mice following intramuscular administration of the test compounds at 20 mg./kg. The blood samples were collected from the orbital sinuses into heparinized capillary tubes at 15, 30, 60 and 120 minutes after administration. The antibiotic concentration was determined by the paper disc-agar diffusion method using Escherichia coli NIHJ as the assay organism.

[5] = system: Pseudomonas aeruginosa; experiment: In vitro MIC, serial two-fold agar dilution, secondary evaluation against Pseudomonas aeruginosa strains; format: cell-based; details: CBPC = 100%, geometric mean of MICs
Protocol: as §4

[6] = system: Escherichia coli Juhl; experiment: In vivo efficacy, experimental infection in mice, intramuscular treatment, Escherichia coli Juhl; parameters: species or system Escherichia coli (infected mice); details: im, 120 h, read-out: PD50 Escherichia coli Juhl
Protocol: as §1, §2, §3

[7] = system: Pseudomonas aeruginosa A9843; experiment: In vivo efficacy, experimental infection in mice, intramuscular treatment, Pseudomonas aeruginosa A9843; parameters: species or system Pseudomonas aeruginosa (infected mice); details: A9843, im, 120 h, read-out: PD50 Pseudomonas aeruginosa A9843
Protocol: as §1, §2
Pseudomonas aeruginosa A9843
as §3

[8] = system: E. coli (9), Klebsiella sp. (2), Pr. mirabilis (1), Sal. enteritidis (1); experiment: In vitro MIC, serial two-fold agar dilution, primary evaluation Gn-I (E. coli, Klebsiella sp., Pr. mirabilis, Sal. enteritidis); format: cell-based; details: CBPC = 100%, geometric mean of MICs
Protocol: as §4
GnI = E. coli (9), Klebsiella sp. (2), Pr. mirabilis (1), Sal.

[9] = system: Ps. aeruginosa; experiment: In vitro MIC, serial two-fold agar dilution, primary evaluation Ps (6 strains); format: cell-based; details: CBPC = 100%, geometric mean of MICs
Protocol: as §4
Ps. = Ps. aeruginosa (6).

[10] = I.M., 100×LD50 challenge i.p., 5 days

## O=C([O-])C1=C(C[n+]2ccc(CCS(=O)(=O)O)cc2)CSC2C(NC(=O)[C@H](NC(=O)c3cnc4cccnc4c3O)c3ccc(O)cc3)C(=O)N12 (stereo partly drawn) [BB-S588, 7-[D-α-(4-Hydroxy-1,5-naphthyridine-3-carboxamido)-α-(4-hydroxyphenyl)acetamido]-3-(4-sulfoethylpyridinium)methyl-3-cephem-4-carboxylate]
[1]; [10]
  ED50: 5 mg/kg
[2]; Mueller-Hinton agar
  In vitro relative activity, primary evaluation Gn-II (6): 45%
[3]; Mueller-Hinton agar
  In vitro relative activity, primary evaluation Gp (6): 45%
[4]
  half-life: 59 min
  Cmax: 4400 ng/mL
[5]; 61-64 strains
  In vitro relative activity, secondary, Pseudomonas aeruginosa (61-64): 2030%
[6]; [10]
  ED50: 1.56 mg/kg
[7]; [10]
  ED50: 6.8 mg/kg
[8]; Mueller-Hinton agar
  In vitro relative activity, primary evaluation Gn-I (13): 350%
[9]; Mueller-Hinton agar
  In vitro relative activity, primary evaluation Ps (6): 1767%

## O=C(O)C=Cc1ccc[n+](CC2=C(C(=O)[O-])N3C(=O)C(NC(=O)[C@H](NC(=O)c4cnc5cccnc5c4O)c4ccc(O)cc4)C3SC2)c1 (stereo partly drawn) [BB-S589, 7-[D-α-(4-Hydroxy-1,5-naphthyridine-3-carboxamido)-α-(4-hydroxyphenyl)acetamido]-3-[3-(2-carboxyvinyl)pyridinium]methyl-3-cephem-4-carboxylate]
[1]; Lot 2, I.M.
  ED50: 3.7 mg/kg
[2]; Mueller-Hinton agar
  In vitro relative activity, primary evaluation Gn-II (6): 14%
[2]; Lot 2
  In vitro relative activity, primary evaluation Gn-II (6): 44%
[3]; Mueller-Hinton agar
  In vitro relative activity, primary evaluation Gp (6): 56%
[3]; Lot 2
  In vitro relative activity, primary evaluation Gp (6): 45%
[4]
  half-life: 60 min
  Cmax: 7000 ng/mL
[5]; 61-64 strains
  In vitro relative activity, secondary, Pseudomonas aeruginosa (61-64): 1880%
[5]; Lot 2
  In vitro relative activity, secondary, Pseudomonas aeruginosa (61-64): 2970%
[6]; Lot 2, I.M.
  ED50: 1.9 mg/kg
[7]; [10]
  ED50: 4 mg/kg
[7]; Lot 2, I.M.
  ED50: 3.2 mg/kg
[8]; Mueller-Hinton agar
  In vitro relative activity, primary evaluation Gn-I (13): 146%
[8]; Lot 2
  In vitro relative activity, primary evaluation Gn-I (13): 107%
[9]; Mueller-Hinton agar
  In vitro relative activity, primary evaluation Ps (6): 1449%
[9]; Lot 2
  In vitro relative activity, primary evaluation Ps (6): 2900%

## O=C(O)Cc1cc[n+](CC2=C(C(=O)[O-])N3C(=O)C(NC(=O)[C@H](NC(=O)c4cnc5cccnc5c4O)c4ccc(O)cc4)C3SC2)cc1 (stereo partly drawn) [BB-S591, 7-[D-α-(4-Hydroxy-1,5-naphthyridine-3-carboxamido)-α-(4-hydroxyphenyl)acetamido]-3-(4-carboxymethylpyridinium)methyl-3-cephem-4-carboxylate]
[1]; [10]
  ED50: 6.15 mg/kg
[2]; Mueller-Hinton agar
  In vitro relative activity, primary evaluation Gn-II (6): 18%
[3]; Mueller-Hinton agar
  In vitro relative activity, primary evaluation Gp (6): 31%
[4]
  half-life: 54 min
  Cmax: 11000 ng/mL
[5]; 61-64 strains
  In vitro relative activity, secondary, Pseudomonas aeruginosa (61-64): 1160%
[6]; [10]
  ED50: 6.25 mg/kg
[7]; [10]
  ED50: 12.5 mg/kg
[8]; Mueller-Hinton agar
  In vitro relative activity, primary evaluation Gn-I (13): 167%
[9]; Mueller-Hinton agar
  In vitro relative activity, primary evaluation Ps (6): 883%

## NC(=O)c1cc[n+](CC2=C(C(=O)[O-])N3C(=O)C(NC(=O)[C@H](NC(=O)c4cnc5cccnc5c4O)c4ccc(O)cc4)C3SC2)cc1C(=O)O (stereo partly drawn) [BB-S592, 7-[D-α-(4-Hydroxy-1,5-naphthyridine-3-carboxamido)-α-(4-hydroxyphenyl)acetamido]-3-(4-carbamoyl-3-carboxypyridinium)methyl-3-cephem-4-carboxylate]
[1]; [10]
  ED50: 4.6 mg/kg
[2]; Mueller-Hinton agar
  In vitro relative activity, primary evaluation Gn-II (6): 11%
[3]; Mueller-Hinton agar
  In vitro relative activity, primary evaluation Gp (6): 56%
[4]
  half-life: 55 min
  Cmax: 12000 ng/mL
[5]; 61-64 strains
  In vitro relative activity, secondary, Pseudomonas aeruginosa (61-64): 695%
[6]; [10]
  ED50: 6.25 mg/kg
[7]; [10]
  ED50: 38 mg/kg
[8]; Mueller-Hinton agar
  In vitro relative activity, primary evaluation Gn-I (13): 121%
[9]; Mueller-Hinton agar
  In vitro relative activity, primary evaluation Ps (6): 594%

## O=C([O-])C1=C(C[n+]2cccc(S(=O)(=O)O)c2)CSC2C(NC(=O)[C@H](NC(=O)c3cnc4cccnc4c3O)c3ccccc3)C(=O)N12 (stereo partly drawn) [BB-S607, 7-[D-α-(4-Hydroxy-1,5-naphthyridine-3-carboxamido)-α-phenylacetamido]-3-(3-sulfopyridinium)methyl-3-cephem-4-carboxylate]
[1]; [10]
  ED50: 4.5 mg/kg
[2]; Mueller-Hinton agar
  In vitro relative activity, primary evaluation Gn-II (6): 13%
[3]; Mueller-Hinton agar
  In vitro relative activity, primary evaluation Gp (6): 35%
[4]
  half-life: 60 min
  Cmax: 10000 ng/mL
[5]; 61-64 strains
  In vitro relative activity, secondary, Pseudomonas aeruginosa (61-64): 695%
[7]; [10]
  ED50: 23 mg/kg
[8]; Mueller-Hinton agar
  In vitro relative activity, primary evaluation Gn-I (13): 24%
[9]; Mueller-Hinton agar
  In vitro relative activity, primary evaluation Ps (6): 883%
